According to the supplement of paper PMC13380429:
Structures can show the parent of a compound that is named as a salt.

Legend:
Details in all cases: 72 h
Vero E6 [1] = experiment: relative viability EC50 (midpoint between 100% and the lowest measured viability); higher = less toxic
Caco-2 [2] = experiment: as above
U2OS [3] = experiment: as above
HepG2 [4] = experiment: as above
Calu-3 [5] = experiment: as above
Vero E6 [6] = experiment: drug sensitivity score (DSS) for viability; higher = more toxic; extreme values may be limits of the assay
Caco-2 [7] = experiment: as above
U2OS [8] = experiment: as above
HepG2 [9] = experiment: as above
Calu-3 [10] = experiment: as above
Vero E6 [11] = experiment: cell viability relative to DMSO; higher = less toxic
Caco-2 [12] = experiment: as above
U2OS [13] = experiment: as above
HepG2 [14] = experiment: as above
Calu-3 [15] = experiment: as above

Row | SMILES | relative viability EC50 (Vero E6 [1]) | relative viability EC50 (Caco-2 [2]) | relative viability EC50 (U2OS [3]) | relative viability EC50 (HepG2 [4]) | relative viability EC50 (Calu-3 [5]) | drug sensitivity score (Vero E6 [6]) | drug sensitivity score (Caco-2 [7]) | drug sensitivity score (U2OS [8]) | drug sensitivity score (HepG2 [9]) | drug sensitivity score (Calu-3 [10]) | cell viability (Vero E6 [11]; 1 nM) | cell viability (Vero E6 [11]; 10 nM) | cell viability (Vero E6 [11]; 100 nM) | cell viability (Vero E6 [11]; 1000 nM) | cell viability (Vero E6 [11]; 10000 nM) | cell viability (Caco-2 [12]; 1 nM) | cell viability (Caco-2 [12]; 10 nM) | cell viability (Caco-2 [12]; 100 nM) | cell viability (Caco-2 [12]; 1000 nM) | cell viability (Caco-2 [12]; 10000 nM) | cell viability (U2OS [13]; 1 nM) | cell viability (U2OS [13]; 10 nM) | cell viability (U2OS [13]; 100 nM) | cell viability (U2OS [13]; 1000 nM) | cell viability (U2OS [13]; 10000 nM) | cell viability (HepG2 [14]; 1 nM) | cell viability (HepG2 [14]; 10 nM) | cell viability (HepG2 [14]; 100 nM) | cell viability (HepG2 [14]; 1000 nM) | cell viability (HepG2 [14]; 10000 nM) | cell viability (Calu-3 [15]; 1 nM) | cell viability (Calu-3 [15]; 10 nM) | cell viability (Calu-3 [15]; 100 nM) | cell viability (Calu-3 [15]; 1000 nM) | cell viability (Calu-3 [15]; 10000 nM)
1 | Cc1nnc(C(C)C)n1C1C[C@H]2CC[C@@H](C1)N2CC[C@H](NC(=O)C1CCC(F)(F)CC1)c1ccccc1 (stereo in doubt) [maraviroc] | > 10 µM | > 10 µM | > 10 µM | > 10 µM | > 10 µM | 0 | 0 | 0 | 0 | 0 | 97.4% | 97.8% | 97.1% | 92.3% | 104% | 101% | 93.8% | 99.5% | 97.9% | 108% | 99.4% | 95.1% | 100% | 99.7% | 106% | 114% | 97.3% | 94.4% | 86.5% | 101% | 107% | 89.8% | 101% | 108% | 114%
2 | CCn1c(=O)[nH]c2ccccc21 [1-EBIO] | > 10 µM | > 10 µM | > 10 µM | > 10 µM | > 10 µM | 0 | 0 | 0 | 0 | 0.3 | 97.4% | 97.5% | 89.7% | 98.2% | 104% | 94.4% | 93.5% | 98% | 100% | 91% | 95.7% | 94.3% | 104% | 98.4% | 93.2% | 96.7% | 98.6% | 91.4% | 84% | 110% | 99.1% | 105% | 104% | 106% | 81.8%
3 | c1ccc2oc(C3=NCCN3)cc2c1 [2-BFI] | > 10 µM | > 10 µM | > 10 µM | > 10 µM | > 10 µM | 0 | 0 | 0 | 0 | 0 | 93.8% | 100% | 90.5% | 94.4% | 107% | 102% | 96.2% | 97.7% | 93.6% | 112% | 100% | 96.7% | 99.7% | 99.9% | 97.7% | 97.9% | 98.3% | 87.5% | 98% | 100% | 95.9% | 99.7% | 102% | 100% | 95.7%
4 | CCCC(O)C(CC)CO (stereo not given) [2-ethyl-1,3-hexanediol] | > 10 µM | > 10 µM | > 10 µM | > 10 µM | > 10 µM | 0.7 | 0 | 0 | 0 | 0 | 95.5% | 102% | 101% | 104% | 75.5% | 106% | 88.9% | 101% | 93.9% | 93.3% | 102% | 99.1% | 95.9% | 97.8% | 102% | 78.7% | 105% | 98.8% | 81.1% | 101% | 105% | 101% | 102% | 94.6% | 103%
5 | COc1ccccc1N1CCN(CCn2c(=O)[nH]c3c([nH]c4ccccc43)c2=O)CC1 [3-MPPI] | > 10 µM | > 10 µM | > 10 µM | > 10 µM | > 10 µM | 0 | 0 | 0 | 0 | 0 | 104% | 104% | 102% | 99.4% | 103% | 96% | 93.8% | 99.4% | 96.1% | 103% | 103% | 98% | 102% | 99.4% | 101% | 102% | 111% | 106% | 102% | 92.2% | 99.6% | 105% | 104% | 98.8% | 106%
6 | COc1ccc(-c2coc3cc(O)cc(O)c3c2=O)cc1 [4-methylgenistein] | > 10 µM | > 10 µM | > 10 µM | > 10 µM | > 10 µM | 0 | 0 | 0 | 0 | 0 | 94% | 95% | 101% | 88.5% | 102% | 98.7% | 98.1% | 105% | 104% | 96% | 99.3% | 94.1% | 99.3% | 98.8% | 97.1% | 106% | 109% | 102% | 92.6% | 95.2% | 113% | 99% | 101% | 106% | 91%
7 | C[C@]12CCC(=O)C=C1CC[C@@H]1[C@@H]2CC[C@@]2(C)[C@H]1CC[C@]2(C)O [17-alpha-Methyltestosterone] | > 10 µM | > 10 µM | > 10 µM | > 10 µM | > 10 µM | 0 | 0 | 0 | 0 | 0 | 92.6% | 97.4% | 94.4% | 91.9% | 105% | 99.2% | 89.5% | 90.4% | 98.8% | 102% | 97.6% | 96.1% | 104% | 101% | 97.1% | 103% | 90.8% | 91.5% | 96.8% | 101% | 108% | 97.1% | 114% | 106% | 115%
8 | Oc1ccc(C2(c3ccccc3F)CCC(F)(F)CC2)cc1 [AC-186] | > 10 µM | > 10 µM | > 10 µM | > 10 µM | > 10 µM | 0 | 0 | 0 | 0 | 0 | 97.4% | 96.5% | 94.2% | 92.2% | 109% | 104% | 95% | 98.2% | 96.2% | 102% | 95.1% | 96.3% | 95.5% | 99.3% | 99% | 95.8% | 94.7% | 100% | 96.3% | 104% | 91% | 98.4% | 89.3% | 105% | 104%
9 | CC(C)OC(=O)N1CCC(Oc2ncnc3c2cnn3-c2ccc(S(C)(=O)=O)cc2F)CC1 [APD668] | > 10 µM | > 10 µM | > 10 µM | > 10 µM | > 10 µM | 0 | 0 | 0 | 1 | 0 | 90.5% | 95.2% | 100% | 95.7% | 105% | 106% | 98.4% | 93.6% | 96.1% | 89.1% | 99.4% | 101% | 97.4% | 106% | 97.5% | 103% | 102% | 96.2% | 98.6% | 77.1% | 106% | 107% | 102% | 108% | 92.7%
10 | Cc1cc(Nc2nc(N[C@@H](C)c3ncc(F)cn3)ncc2Cl)[nH]n1 [AZD1480] | > 10 µM | > 10 µM | > 10 µM | > 10 µM | > 10 µM | 0 | 0.2 | 0 | 0.7 | 0 | 94.3% | 96.2% | 95.9% | 100% | 97.9% | 93.2% | 102% | 95.5% | 102% | 84.2% | 99.7% | 102% | 102% | 101% | 97% | 98.6% | 101% | 96.5% | 87.9% | 89.4% | 106% | 91.6% | 99.7% | 96.6% | 90.8%
11 | N#Cc1cc(F)cc(-c2nc(-c3ccc(F)cn3)no2)c1 [AZD9272] | > 10 µM | > 10 µM | > 10 µM | > 10 µM | > 10 µM | 0 | 0 | 0 | 0 | 0 | 96.7% | 95.2% | 95.8% | 89.5% | 108% | 96.7% | 105% | 101% | 111% | 94.8% | 94.9% | 99% | 96.7% | 104% | 103% | 94.3% | 99.5% | 95.5% | 107% | 96.2% | 109% | 92.1% | 97.7% | 90.4% | 97.5%
12 | COc1ccccc1N1CCN(CCN2C(=O)CC3(CCCC3)CC2=O)CC1 [BMY-7378] | > 10 µM | > 10 µM | > 10 µM | > 10 µM | > 10 µM | 0 | 0 | 0 | 0 | 0 | 97.3% | 95.6% | 99.9% | 90.1% | 106% | 89% | 93.9% | 97.5% | 97.3% | 103% | 93.5% | 100% | 96.3% | 95.8% | 102% | 106% | 102% | 105% | 98.4% | 108% | 92.7% | 95.2% | 109% | 110% | 106%
13 | CCC(=O)O[C@]1(C(=O)CO)CC[C@H]2[C@@H]3CCC4=CC(=O)CC[C@]4(C)[C@H]3CC[C@@]21C [CB-03-01] | > 10 µM | > 10 µM | > 10 µM | > 10 µM | > 10 µM | 0 | 0 | 0 | 0 | 0 | 101% | 107% | 101% | 96.8% | 99.6% | 99.4% | 103% | 100% | 101% | 101% | 99.9% | 104% | 98.3% | 102% | 97% | 102% | 106% | 90.8% | 95.4% | 96.1% | 93.7% | 97% | 102% | 109% | 94.9%
14 | CO/N=C(\C(=O)N[C@@H]1C(=O)N2C(C(=O)O)=C(CSC(=O)c3ccco3)CS[C@H]12)c1csc(N)n1 [CEFTIOFUR HYDROCHLORIDE] | > 10 µM | > 10 µM | > 10 µM | > 10 µM | > 10 µM | 0 | 0 | 0 | 0 | 0 | 92.5% | 107% | 93.9% | 96.9% | 106% | 99.9% | 97% | 90.6% | 95.4% | 99.3% | 104% | 95.6% | 100% | 97.4% | 104% | 106% | 98.5% | 92.4% | 103% | 103% | 96.3% | 110% | 99.4% | 104% | 102%
15 | CC(C)(CO)Cc1cc(C(C)(C)C)c(O)c(C(C)(C)C)c1 [CGP-7930] | > 10 µM | > 10 µM | > 10 µM | > 10 µM | > 10 µM | 0 | 0 | 0 | 0 | 0 | 108% | 109% | 95.6% | 108% | 102% | 96.8% | 98.5% | 101% | 99.7% | 96% | 98.2% | 101% | 103% | 101% | 104% | 109% | 107% | 91.1% | 108% | 101% | 93.6% | 99.2% | 98.3% | 105% | 102%
